Data as given in PMC5011342, “A high throughput drug screening assay to identify compounds that promote oligodendrocyte differentiation using acutely dissociated and purified oligodendrocyte precursor cells” (BMC Research Notes, 2016).
Structures can show the parent of a compound that is named as a salt. Where two headings read alike, the source gives them in different places.

Assays:
expanded OPCs = test: cells; conditions: for viability at 0.1 µM / viability at 1 µM / viability at 10 µM: Rattus norvegicus, 72 h
Description: Having established a consistent assay for measuring OL differentiation in vitro, the next step was to utilize this assay to assess the ability of a wide array of compounds to promote OL differentiation. Prior to library screening, we first established the maximum non-toxic dose of each compound in the library. […] Therefore, we added each compound in the NIH clinical collection (NCC) library to OPCs at 10, 1, and 0.1 µM concentrations. Three days later, we assessed viability of the treated cells by measuring AlamarBlue fluorescence, a measure of cell viability (see “Methods” section). […] Appropriately, we established three sets of screening concentrations for library compounds: non-toxic compounds were tested at 10 and 2 µM, slightly toxic compounds (only toxic at 10 µM) were tested at 2 and 0.4 µM, and very toxic compounds were tested at 0.4 and 0.08 µM.
OPCs were expanded in vitro by seeding into PDL-coated tissue culture flasks at 1000–2000 cells/cm^2 in differentiation media supplemented with 10 ng/ml PDGF-AA. Proliferating OPCs were fed every 2–3 days and supplemented with 2–3× concentration of PDGF as needed to prevent OPC differentiation. After 6–7 days of proliferation, OPCs were harvested by trypsinization, plated into PDL-coated 96-well Falcon plates and centrifuged at 200×g to facilitate cell attachment, survival, and even distribution of cells. Expanded OPCs were seeded in differentiation media at 10,000 cells/well and incubated for 2 h at 37 °C, 10 % CO2 prior to addition of compounds. The NCC library was diluted and added to cells at 10, 1, and 0.1 µM; each concentration was tested in quadruplicate. As a positive control for the induction of toxicity, 5 ng/ml tunicamycin was added to 8 wells in each plate. Three days later, a 1:10 dilution of alamarBlue® (AB) was added to each well and cells were incubated 4 h at 37 °C, 10 % CO2. AB fluorescence was measured using a PerkinElmer Victor II fluorescence microplate reader (PerkinElmer, Waltham, MA) with 560 nm excitation/590 nm emission filters. For library screening, the highest concentration of each compound was adjusted to a minimally toxic concentration based on this toxicity data. Compounds were additionally tested at a second concentration that was 1/5th of the top concentration. The final concentration of DMSO in each well was 0.1 %.

[1] = test system: acutely dissociated and purified rat OPCs; test: Acute OL differentiation assay (MBP expression/cell, immunofluorescent image quantification); assay type: cell-based; conditions: sheet "All OLga data"; for activation at 0.4 µM / activation at 2 µM / activation at 10 µM / activation at 0.08 µM: Rattus norvegicus; for activation at 0.08 µM: test compound at 0.08 uM, read-out: 0.08 uM (% Quet)
How it was run: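 This acute differentiation assay used purified rat OPCs from postnatal day 6–7 pups, seeded into PDL/laminin-coated 96-well plates in differentiation medium lacking PDGF and FGF. Compounds were applied in quadruplicate after a 1–2 h preincubation at 37 °C, 10 % CO2, with 0.1 % DMSO negative and 40 ng/ml T3 positive controls in eight wells. After fixation on DIV4, anti-MBP immunofluorescence images yielded MBP expression/cell.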

[2] = alamarBlue viability of expanded OPCs, compound at 0.1 µM, relative to DMSO control
[3] = alamarBlue viability of expanded OPCs, compound at 1 µM, relative to DMSO control
[4] = alamarBlue viability of expanded OPCs, compound at 10 µM, relative to DMSO control
[5] = test compound at 0.4 uM, NCC library screen, relative to quetiapine, read-out: 0.4 uM (% Quet)
[6] = test compound at 2 uM, NCC library screen, relative to quetiapine, read-out: 2 uM (% Quet)
[7] = read-out: 0.1 µM (% DMSO), alamarBlue viability of expanded OPCs, compound at 0.1 µM, sheet All Tox data
[8] = read-out: 1 µM (% DMSO), alamarBlue viability of expanded OPCs, compound at 1 µM, sheet All Tox data
[9] = read-out: 10 µM (% DMSO), alamarBlue viability of expanded OPCs, compound at 10 µM, sheet All Tox data
[10] = 2 uM test compound, relative to quetiapine, read-out: OL differentiation, 2 uM (% Quet)
[11] = 10 uM test compound, relative to quetiapine, read-out: OL differentiation, 10 uM (% Quet)
[12] = read-out: 0.1 µM (% DMSO), alamarBlue viability, NCC library compound at 0.1 µM, sheet "All Tox data"
[13] = read-out: 1 µM (% DMSO), alamarBlue viability, NCC library compound at 1 µM, sheet "All Tox data"
[14] = read-out: 10 µM (% DMSO), alamarBlue viability, NCC library compound at 10 µM, sheet "All Tox data"
[15] = NCC library screen, relative to quetiapine
[16] = test compound at 2 uM, MBP expression relative to quetiapine, NCC library screen, read-out: 2 uM (% Quet)
[17] = test compound at 10 uM, MBP expression relative to quetiapine, NCC library screen, read-out: 10 uM (% Quet)
[18] = test compound at 10 uM, NCC library screen, relative to quetiapine, read-out: 10 uM (% Quet)

With `CN(C)CCC=C1c2ccccc2CCc2ccccc21` [Amitriptyline] the “0.1 µM (% DMSO)” value (expanded OPCs; [2]) was 82.0 % DMSO, the “1 µM (% DMSO)” value (expanded OPCs; [3]) was 60.1 % DMSO and the “10 µM (% DMSO)” value (expanded OPCs; [4]) was 18.3 % DMSO. The activation at 0.4 µM [1, 5] was -6% and the activation at 2 µM [1, 6] was -23.5%.
With `CC(C)c1ccc2oc3nc(N)c(C(=O)O)cc3c(=O)c2c1` [Amlexanox] the viability at 0.1 µM (expanded OPCs; [7]) was 84.3%, the viability at 1 µM (expanded OPCs; [8]) was 88.6% and the viability at 10 µM (expanded OPCs; [9]) was 91.9%. The activation at 2 µM [1, 10] was -11.6% and the activation at 10 µM [1, 11] was -20%.
`CCOC(=O)C1=C(COCCN)NC(C)=C(C(=O)OC)C1c1ccccc1Cl` (stereo not drawn) [Amlodipine] gave a viability at 0.1 µM (expanded OPCs; [12]) of 69.7%, a viability at 1 µM (expanded OPCs; [13]) of 22.7% and a viability at 10 µM (expanded OPCs; [14]) of 8.6%. The activation at 0.08 µM [1, 15] was -17.1% and the activation at 0.4 µM [1, 5] was -39.6%.
Compound `Clc1ccc2c(c1)C(N1CCNCC1)=Nc1ccccc1O2` [Amoxapine] has a viability at 0.1 µM (expanded OPCs; [12]) of 62%, a viability at 1 µM (expanded OPCs; [13]) of 40% and a viability at 10 µM (expanded OPCs; [14]) of 19.2%. For the same compound, the activation at 0.08 µM [1, 15] was 13% and the activation at 0.4 µM [1, 5] was -10.8%.
In the case of `CC1(C)S[C@@H]2[C@H](NC(=O)[C@H](N)c3ccc(O)cc3)C(=O)N2[C@H]1C(=O)O` [Amoxicillin], the “0.1 µM (% DMSO)” value (expanded OPCs; [2]) is reported as 93.8 % DMSO, the “1 µM (% DMSO)” value (expanded OPCs; [3]) is reported as 104.4 % DMSO and the “10 µM (% DMSO)” value (expanded OPCs; [4]) is reported as 96.1 % DMSO. For the same compound, the activation at 2 µM [1, 16] was 17.9% and the activation at 10 µM [1, 17] was -7%.
In the case of `CC1(C)S[C@@H]2[C@H](NC(=O)[C@H](N)c3ccccc3)C(=O)N2[C@H]1C(=O)O` [Ampicillin], the “0.1 µM (% DMSO)” value (expanded OPCs; [2]) is reported as 88.7 % DMSO, the “1 µM (% DMSO)” value (expanded OPCs; [3]) is reported as 94.1 % DMSO and the “10 µM (% DMSO)” value (expanded OPCs; [4]) is reported as 94.1 % DMSO. The activation at 2 µM [1, 16] was -10.9% and the activation at 10 µM [1, 17] was -36.2%.
With `CCOC(=O)OC(C)OC1=C(C(=O)Nc2ccccn2)N(C)S(=O)(=O)c2ccccc21` (stereo not drawn) [Ampiroxicam] the viability at 0.1 µM (expanded OPCs; [12]) was 97.8%, the viability at 1 µM (expanded OPCs; [13]) was 82.6% and the viability at 10 µM (expanded OPCs; [14]) was 90.8%. The activation at 2 µM [1, 6] was 12.7% and the activation at 10 µM [1, 18] was -2%.
`O=C1CN2Cc3c(ccc(Cl)c3Cl)N=C2N1` [Anagrelide hydrochloride] gave a viability at 0.1 µM (expanded OPCs; [12]) of 93.1%, a viability at 1 µM (expanded OPCs; [13]) of 90.4% and a viability at 10 µM (expanded OPCs; [14]) of 81.2%. The activation at 2 µM [1, 10] was -7% and the activation at 10 µM [1, 11] was -4.5%.
With `CC(C)(C#N)c1cc(Cn2cncn2)cc(C(C)(C)C#N)c1` [Anastrozole] the viability at 0.1 µM (expanded OPCs; [12]) was 87.4%, the viability at 1 µM (expanded OPCs; [13]) was 92.9% and the viability at 10 µM (expanded OPCs; [14]) was 80.3%. For the same compound, the activation at 2 µM [1, 6] was -29.6% and the activation at 10 µM [1, 18] was -33%.
`CC1CNc2c(cccc2S(=O)(=O)N[C@@H](CCCNC(=N)N)C(=O)N2CC[C@@H](C)C[C@@H]2C(=O)O)C1` (stereo partly drawn) [Argatroban] gave a viability at 0.1 µM (expanded OPCs; [7]) of 103%, a viability at 1 µM (expanded OPCs; [8]) of 101% and a viability at 10 µM (expanded OPCs; [9]) of 93%. It also gave an activation at 2 µM [1, 10] of 0.26% and an activation at 10 µM [1, 11] of 2.3%.
For `O=C1CCc2ccc(OCCCCN3CCN(c4cccc(Cl)c4Cl)CC3)cc2N1` [Aripiprazole], the viability at 0.1 µM (expanded OPCs; [7]) was 88.2%, the viability at 1 µM (expanded OPCs; [8]) was 86.5% and the viability at 10 µM (expanded OPCs; [9]) was 11.3%. For the same compound, the activation at 0.4 µM ([1]; 0.4 uM test compound, relative to quetiapine, read-out: OL differentiation, 0.4 uM (% Quet)) was -30.6% and the activation at 2 µM [1, 10] was -18.8%.
For `CO[C@H]1O[C@@H]2O[C@@]3(C)CC[C@H]4[C@H](C)CC[C@@H]([C@H]1C)[C@@]24OO3` [Artemethe], the “0.1 µM (% DMSO)” value (expanded OPCs; alamarBlue viability, NCC library compound at 0.1 µM, sheet "All Tox data") was 81.3 % DMSO, the “1 µM (% DMSO)” value (expanded OPCs; alamarBlue viability, NCC library compound at 1 µM, sheet "All Tox data") was 76.5 % DMSO and the “10 µM (% DMSO)” value (expanded OPCs; alamarBlue viability, NCC library compound at 10 µM, sheet "All Tox data") was 77.8 % DMSO. The “2 uM (% Quet)” value ([1]; test compound at 2 uM, NCC library screen, relative to quetiapine) was -5.4 % Quet and the “10 uM (% Quet)” value ([1]; test compound at 10 uM, NCC library screen, relative to quetiapine) was -21.6 % Quet.
